Measured values reported in US6117840A, “CS-1 peptidomimetics, compositions and methods of using the same” (Cytel Corporation, priority 1997, dated 2000).
Square brackets hold non-standard residues; d marks the D form. Peptide text beside a SMILES is read from it. * marks the point of attachment. Phe(4-NO2) = N[C@@H](Cc1ccc([N+](=O)[O-])cc1)C(=O)O; NHOctadecyl = CCCCCCCCCCCCCCCCCCN*; hPhe = N[C@@H](CCc1ccccc1)C(=O)O; Cha = N[C@@H](CC1CCCCC1)C(=O)O; Morpholide = C1CN(*)CCO1; Pyrrolidide = C1CCN(*)C1; NHDecyl = CCCCCCCCCCN*; PhAc = O=C(Cc1ccccc1)*; Bz = O=C(c1ccccc1)*; Ahx = NCCCCCC(=O)O; NHNH2 = NN*

Biological target: T1, VLA-4 (Homo sapiens, UniProt P05556+P13612)
T1 construct: host or cells: Jurkat (human T lymphoblastic line)
Assay: not given
Format: cell-based
Settings: not given
Method: Binding inhibition is measured here as a concentration of peptide that inhibits one-half the binding between a standard number of Jurkat cells and a standard amount of CS-1 peptide bound to the surface of a microtiter plate well. Those concentrations are conveniently expressed as IC50 values, smaller numbers indicating a lower concentration required to inhibit 50 percent binding and therefore greater potency. Further specifics of this assay are provided hereinafter.
Jurkat cells (ATCC TIB 152), a human T lymphoblastic line, labeled with ^51 chromium were used to assay in vitro binding inhibition provided by various peptides discussed herein.
The plates were prepared as follows: The 25-mer CS1 peptide (SEQ ID NO:1) dissolved at 0.5-1 μg/ml in a buffer of 0.1M NaHCO3 at pH 9.5 tha also contained 10 μg/ml of bovine serum albumin (BSA) or a conjugate o the CS1 peptide linked to ovalbumin (CS1-OVA) dissolved at 1-2.5 μg/ml in the same buffer was used as the substrate. Each well of the microtiter plates was coated with 50 μl of substrate or buffer alone for controls The wells were permitted to dry out completely and were then rinsed twice with PBS at pH 7.4. Nonspecific binding sites of each well were then blocked using 200 μl per well of RPMI/1 percent BSA for two hours at room temperature. Both solid phaseaffixed substrates provided similar results.
Jurkat cells (3-5×10^6 cells) were placed into a 15 ml Falcon.TM roundbottom tube with a cap. The tube was centrifuged, and the extra medium was then removed.
Two hundred microliters of a ^51 Cr labeling solution were added to th centrifuged cells and maintained in contact with the cells for 90-120 minutes in a warm room. This procedure typically provides about 50,000-100,000 cpm/well with about 80-100 percent cell viability. Longer contact times provide a greater amount of labeling but lower cell viability.
The labeled cells are washed with (i) complete medium, (ii) 1 mM EDTA/PBS and then (iii) RPMI/1 percent BSA free of serum components. The cells are centrifuged after each washing. The cells are finally resuspended in serumfree RPMI/1 percent BSA at a concentration of 1×10^6 viabl cells/ml, which provides a concentration that is diluted by onehalf in th assay.
Inhibitor peptides are prepared as stock solutions at 20 mg/ml in DMSO in 1.5 ml cryogenic screwcap vials, and were stored at -70° C. Using Flow™ roundbottom or Vbottom microtiter plates, the inhibitor peptides were prepared at twice the assay concentration in RPMI/1 percent BSA at 6 μl/well.
Four initial dilutions were typically used.
The ^51 Crlabeled cells (1×10^6 cells at 60 μl/well) were then admixed with the diluted peptide solutions. The admixtures were maintained at room temperature (about 22° C.) for 30 minutes.
One hundred microliters of each inhibitor peptide/cell admixture were transferred to the substratecoated wells. This was done in triplicate for each dilution. The resulting plates were incubated for 30 minutes at 37° C. and then washed gently three times with RPMI/1 percent BSA at 200 μl/well. Binding was observed microscopically, particularly after the second wash.
The bound cells were then lysed by the addition of a 0.5 percent solution of sodium dodecylsulfate in water at 100 μl/well. The resulting solutions were then processed for counting and calculation of IC50 values following usual procedures. Appropriate positive and negative controls were used with each plate so that the results of separate assays could be normalized and compared.

T1 sequence (P13612 34-1032): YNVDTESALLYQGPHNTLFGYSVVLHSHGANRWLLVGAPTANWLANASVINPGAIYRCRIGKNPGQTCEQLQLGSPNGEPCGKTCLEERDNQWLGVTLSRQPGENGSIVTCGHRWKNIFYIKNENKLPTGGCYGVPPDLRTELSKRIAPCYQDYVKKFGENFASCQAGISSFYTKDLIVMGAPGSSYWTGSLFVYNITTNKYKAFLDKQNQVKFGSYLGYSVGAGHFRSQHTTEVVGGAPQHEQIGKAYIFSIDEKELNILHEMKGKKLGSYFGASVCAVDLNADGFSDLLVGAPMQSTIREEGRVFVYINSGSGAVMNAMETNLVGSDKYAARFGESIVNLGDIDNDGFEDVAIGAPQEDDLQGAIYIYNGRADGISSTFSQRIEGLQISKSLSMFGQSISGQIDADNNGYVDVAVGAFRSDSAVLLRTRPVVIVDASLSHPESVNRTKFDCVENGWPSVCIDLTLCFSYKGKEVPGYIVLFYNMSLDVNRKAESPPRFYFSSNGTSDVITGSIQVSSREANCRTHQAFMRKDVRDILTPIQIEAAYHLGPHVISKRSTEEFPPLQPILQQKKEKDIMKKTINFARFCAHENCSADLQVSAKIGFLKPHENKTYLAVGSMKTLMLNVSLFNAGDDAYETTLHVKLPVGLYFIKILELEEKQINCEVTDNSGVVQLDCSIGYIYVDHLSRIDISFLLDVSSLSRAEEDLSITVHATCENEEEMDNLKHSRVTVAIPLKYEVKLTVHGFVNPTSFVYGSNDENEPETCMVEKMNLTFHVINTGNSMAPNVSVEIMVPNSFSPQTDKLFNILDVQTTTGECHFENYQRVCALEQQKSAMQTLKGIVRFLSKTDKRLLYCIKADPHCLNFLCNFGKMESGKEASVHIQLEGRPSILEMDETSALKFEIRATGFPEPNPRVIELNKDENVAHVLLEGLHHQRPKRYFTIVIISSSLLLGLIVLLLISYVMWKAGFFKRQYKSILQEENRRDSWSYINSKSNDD
T1 sequence (P05556 21-798): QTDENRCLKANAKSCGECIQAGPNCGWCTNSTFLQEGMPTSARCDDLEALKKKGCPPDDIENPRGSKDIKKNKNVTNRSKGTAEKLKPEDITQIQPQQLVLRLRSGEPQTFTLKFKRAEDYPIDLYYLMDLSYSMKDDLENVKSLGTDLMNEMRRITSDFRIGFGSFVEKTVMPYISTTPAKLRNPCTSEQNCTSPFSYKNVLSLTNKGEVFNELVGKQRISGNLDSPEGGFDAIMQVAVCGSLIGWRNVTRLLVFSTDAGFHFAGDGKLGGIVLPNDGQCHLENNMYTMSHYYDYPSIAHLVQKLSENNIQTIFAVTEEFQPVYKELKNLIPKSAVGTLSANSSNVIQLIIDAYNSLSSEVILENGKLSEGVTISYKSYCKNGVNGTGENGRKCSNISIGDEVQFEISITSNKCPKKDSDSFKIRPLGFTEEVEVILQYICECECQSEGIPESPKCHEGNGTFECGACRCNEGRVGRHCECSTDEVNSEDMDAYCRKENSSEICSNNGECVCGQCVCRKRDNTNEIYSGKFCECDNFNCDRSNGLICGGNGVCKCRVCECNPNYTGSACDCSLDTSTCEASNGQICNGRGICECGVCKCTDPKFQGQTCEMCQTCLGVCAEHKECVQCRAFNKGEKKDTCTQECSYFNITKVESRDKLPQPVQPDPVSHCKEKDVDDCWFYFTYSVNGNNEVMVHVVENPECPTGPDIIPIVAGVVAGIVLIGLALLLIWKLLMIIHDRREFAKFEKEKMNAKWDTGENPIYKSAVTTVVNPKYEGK

| RELATIVE POTENCY (inhibition of VLA-4 binding CS-1) | Compound | VLA-4 binding inhibition, times better than the standard 10-mer peptide of SEQ ID NO:3 |
| --- | --- | --- |
|  | CC(C)C[C@H](NC(=O)Cc1ccccc1)C(=O)N[C@@H](CC(=O)O)C(=O)N[C@@H](Cc1ccccc1)C(=O)N1CCC[C@H]1C(=O)NCCN(CCN(CCN(CCNC(=O)[C@@H]1CCCN1C(=O)[C@H](Cc1ccccc1)NC(=O)[C@H](CC(=O)O)NC(=O)[C@H](CC(C)C)NC(=O)Cc1ccccc1)C(=O)[C@@H]1CCCN1C(=O)[C@H](Cc1ccccc1)NC(=O)[C@H](CC(=O)O)NC(=O)[C@H](CC(C)C)NC(=O)Cc1ccccc1)C(=O)[C@@H]1CCCN1C(=O)[C@H](Cc1ccccc1)NC(=O)[C@H](CC(=O)O)NC(=O)[C@H](CC(C)C)NC(=O)Cc1ccccc1)C(=O)[C@@H]1CCCN1C(=O)[C@H](Cc1ccccc1)NC(=O)[C@H](CC(=O)O)NC(=O)[C@H](CC(C)C)NC(=O)Cc1ccccc1 | about 210 times |
| 0 | CC(=O)N[C@@H](CC(C)C)C(=O)N[C@@H](CC(=O)O)C(=O)N[C@H](C(N)=O)C(C)C [L D V acetyl amide, reference compound] (Ac-Leu-Asp-Val-NH2) |  |
| 0 | CC(=O)N[C@@H](CC(C)C)C(=O)N[C@@H](CC(=O)O)C(=O)N[C@@H](Cc1ccccc1)C(N)=O [L D F acetyl amide] (Ac-Leu-Asp-Phe-NH2) |  |

Same assay, conditions: compared to standard 10-mer / B12

| binding inhibition (in words) | Compound |
| --- | --- |
| three times more potent | CC[C@H](C)[C@H](NC(=O)[C@H](CCC(=O)O)NC(=O)[C@@H]1CCCN1C(=O)CNC(=O)[C@H](Cc1c[nH]cn1)NC(=O)[C@H](CC(C)C)NC(=O)[C@H](CC(N)=O)NC(=O)[C@@H]1CCCN1C(=O)[C@H](Cc1c[nH]cn1)NC(=O)[C@@H]1CCCN1C(=O)[C@H](CC(C)C)NC(=O)[C@@H](NC(=O)[C@@H](NC(=O)[C@H](CC(C)C)NC(=O)[C@H](CCC(N)=O)NC(=O)[C@@H]1CCCN1C(=O)[C@H](CC(C)C)NC(=O)[C@H](CCC(=O)O)NC(=O)[C@@H](N)CC(=O)O)C(C)C)[C@@H](C)O)C(=O)N[C@@H](CC(C)C)C(=O)N[C@@H](CC(=O)O)C(=O)N[C@H](C(=O)N1CCC[C@H]1C(=O)N[C@@H](CO)C(=O)N[C@H](C(=O)O)[C@@H](C)O)C(C)C [CS-1 peptide, reference compound] (H-DELPQLVTLPHPNLHGPEILDVPST-OH) |

Same assay, conditions: relative to standard peptide SEQ ID NO:3 (=1), normalized IC50; about one-tenth or less of SEQ ID NO:3 assigned zero

| Compound | RELATIVE POTENCY (inhibition of VLA-4 binding CS-1) |
| --- | --- |
| CCCCCCCCCCCCCCCCCC(=O)OC1CCN(C(=O)[C@H](Cc2ccccc2)NC(=O)[C@H](CC(=O)O)NC(=O)[C@H](CC(C)C)NC(=O)Cc2ccccc2)CC1 | < 1 |
| CC(C)C[C@H](NC(=O)Cc1ccccc1)C(=O)N[C@@H](CC(=O)O)C(=O)N[C@@H](Cc1ccc([N+](=O)[O-])cc1)C(=O)N1CCC[C@@H]1C(N)=O (PhAc-LD[Phe(4-NO2)][dP]-NH2) | 40 |
| CC(C)C[C@H](NC(=O)Cc1ccccc1)C(=O)N[C@@H](CC(=O)O)C(=O)NN [X L D Z phenylacetyl hydrazide] (PhAc-Leu-Asp-NHNH2) | < 1 |
| CC(C)C[C@H](NC(=O)Cc1ccccc1)C(=O)N[C@@H](CC(=O)O)C(=O)N[C@@H](CC(C)C)C(=O)N1CCOCC1 [X L D L Z phenylacetyl morpholinamide] (PhAc-Leu-Asp-Leu-Morpholide) | 291 |
| CC(C)C[C@H](NC(=O)Cc1ccccc1)C(=O)N[C@@H](CC(=O)O)C(=O)N[C@@H](CO)C(=O)N1CCC[C@@H]1C(N)=O [X L D S p phenylacetyl amide] (PhAc-LDS[dP]-NH2) | 17 |
| NC(=O)[C@H]1CCCN1C(=O)[C@H](Cc1ccccc1)NC(=O)[C@H](CC(=O)O)NC(=O)[C@H](CC1CCCCC1)NC(=O)Cc1ccccc1 (PhAc-[Cha]DF[dP]-NH2) | 217 |
| CCCCCCCCCC(=O)OC1CCN(C(=O)[C@H](Cc2ccccc2)NC(=O)[C@H](CC(=O)O)NC(=O)[C@H](CC(C)C)NC(=O)Cc2ccccc2)CC1 | < 1 |
| CC(C)C[C@H](NC(=O)Cc1ccccc1)C(=O)N[C@@H](CC(=O)O)C(=O)N[C@@H](Cc1ccccc1)C(=O)N1CCN(CC(=O)O)CC1 | 2579 |
| CCCCCCCCCCNC(=O)[C@@H]1CCCN1C(=O)[C@H](Cc1ccccc1)NC(=O)[C@H](CC(=O)O)NC(=O)[C@H](CC(C)C)NC(=O)Cc1ccccc1 [X L D F P Z phenylacetyl decylamide] (PhAc-LDFP-NHDecyl) | 2 |
| CC(C)C[C@H](NC(=O)Cc1ccccc1)C(=O)N[C@@H](CC(=O)O)C(=O)N(Cc1ccccc1)Cc1ccccc1 [X L D Z phenylacetyl dibenzylamide] | 0 |
| CC(C)C[C@H](NC(=O)Cc1ccccc1)C(=O)N[C@@H](CC(=O)O)C(=O)N[C@@H](Cc1ccccc1)C(=O)N1CCOCC1 [X L D F Z phenylacetyl morpholinamide, N--phenylacetyl--Leu--Asp--Phe--morpholinamide] (PhAc-Leu-Asp-Phe-Morpholide) | 844 |
| CC(C)[C@H](NC(=O)[C@H](CC(=O)O)NC(=O)[C@H](CC1CCCCC1)NC(=O)c1ccccc1)C(=O)N1CCC[C@@H]1C(N)=O (Bz-[Cha]DV[dP]-NH2) | 11 |
| CC(C)C[C@H](NC(=O)Cc1ccccc1)C(=O)N[C@@H](CC(=O)O)C(=O)N[C@@H](CCc1ccccc1)C(=O)N1CCC[C@@H]1C(N)=O (PhAc-LD[hPhe][dP]-NH2) | 94 |
| CC(C)C[C@H](NC(=O)c1ccccc1)C(=O)N[C@@H](CC(=O)O)C(=O)N[C@H](C(=O)N1CCC[C@H]1C(N)=O)C(C)C [X L D V P benzoyl amide] | 37 |
| CC(C)C[C@H](NC(=O)Cc1ccccc1)C(=O)N[C@@H](CC(=O)O)C(=O)N[C@H]1Cc2ccccc2[C@H]2CCCCN2C1=O | 50 |
| CC(C)C[C@H](NC(=O)Cc1ccccc1)C(=O)N[C@@H](CC(=O)O)C(=O)N[C@H](C(=O)N1CCC[C@@H]1C(N)=O)C(C)C [X L D V p phenylacetyl amide, N--phenylacetyl--Leu--Asp--Val--D--Pro--NH2] | 106 |
| CC(C)C[C@H](NC(=O)Cc1ccccc1)C(=O)N[C@@H](CC(=O)O)C(=O)N[C@@H](Cc1ccc(O)cc1)C(=O)N1CCC[C@@H]1C(N)=O [X L D Y p phenylacetyl amide, N--phenylacetyl--Leu--Asp--Tyr--D--Pro--NH2] (PhAc-LDY[dP]-NH2) | 640 |
| CC(C)C[C@H](NC(=O)Cc1ccccc1)C(=O)N[C@@H](CC(=O)O)C(=O)N[C@@H](Cc1ccccc1)C(=O)N1CCCC1 [X L D F Z phenylacetyl pyrrolidinamide] (PhAc-Leu-Asp-Phe-Pyrrolidide) | 250 |
| CC(C)C[C@H](NC(=O)Cc1ccccc1)C(=O)N[C@@H](CC(=O)O)C(=O)N[C@@H](Cc1ccccc1)C(=O)N1CC(O)C(O)C1 (some centres unmarked) | 194 |

Same assay, conditions: relative to standard peptide SEQ ID NO:3 (=1), normalized IC50; about one-tenth or less of SEQ ID NO:3 assigned zero; listed as X L D V p benzoyl amide

| Compound | RELATIVE POTENCY (inhibition of VLA-4 binding CS-1) |
| --- | --- |
| CC(C)C[C@H](NC(=O)c1ccccc1)C(=O)N[C@@H](CC(=O)O)C(=O)N[C@H](C(=O)N1CCC[C@H]1C(N)=O)C(C)C [X L D V P benzoyl amide] | 20 |

Same assay, conditions: relative to standard peptide SEQ ID NO:3 (=1), normalized IC50; about one-tenth or less of SEQ ID NO:3 assigned zero; listed as X L D Y P phenylacetyl amide

| Compound | RELATIVE POTENCY (inhibition of VLA-4 binding CS-1) |
| --- | --- |
| CC(C)C[C@H](NC(=O)Cc1ccccc1)C(=O)N[C@@H](CC(=O)O)C(=O)N[C@@H](Cc1ccc(O)cc1)C(=O)N1CCC[C@@H]1C(N)=O [X L D Y p phenylacetyl amide, N--phenylacetyl--Leu--Asp--Tyr--D--Pro--NH2] (PhAc-LDY[dP]-NH2) | 405 |

System: not listed separately
Assay: Water solubility
Format: physicochemical
Settings: forms a turbid dispersion rather than a solution

| water solubility | Compound |
| --- | --- |
| not water-soluble | CCCCCCCCCCCCCCCCCCNC(=O)CCCCCNC(=O)[C@@H]1CCCN1C(=O)[C@H](Cc1ccccc1)NC(=O)[C@H](CC(=O)O)NC(=O)[C@H](CC(C)C)NC(=O)Cc1ccccc1 [phenylacetyl--Leu--Asp--Phe--Pro--NH(CH2)5 C(O)NHC18 H37] (PhAc-LDFP[Ahx]-NHOctadecyl; C-terminus assumed) |
